Where a SMILES comes first, the peptide text is derived from it. Bridges are numbered along the chain shown (N, C = ends). Where no end group is shown, it is not given here.
Assays:
mouse muscle tissue = details: cited from earlier work
Plasmodium = details: same mouse model (ECM), infected mice treated with the ACE inhibitor; cited from earlier work
Plasmodium berghei ANKA [1] = assay: Experimental cerebral malaria (ECM) model: parasitemia and survival; type: in vivo, C57BL/6 mice
Protocol: Six- to eight-week-old male C57BL/6 mice were provided by the Oswaldo Cruz Foundation (FIOCRUZ—Rio de Janeiro, Brazil). The mice were housed in appropriate cages with free access to food and fresh water in a room with controlled temperature (22–24 °C) with a light/dark cycle of 12 h.
(§1) A cryopreserved sample of erythrocytes infected with P. berghei ANKA (kindly provided by Dr. Leonardo J. Carvalho, La Jolla University, San Diego, CA) was thawed and 1 × 10^6 erythrocytes infected with P. berghei ANKA were injected intraperitoneally (i.p.) in the C57BL/6 mice. Parasitemia was monitored from the prepatent period until parasitemia was sufficient for infection of the experimental animal groups (7 male mice per group), i.e., 5–8% parasitemia per mL of blood (injection of 200 µL in each mouse).
The same protocol was performed with 6- to 8-week-old BALB/c mice also provided from FIOCRUZ (8 male mice per group). Each group was treated one hour before infection (day zero) i.p. at 100 ng Kg^−1 for five consecutive days. The dose used was similar to that used for Ang II in in vivo studies, as described by Gallego-Delgado et al., 2015. […] After 3 days, parasitemia was evaluated by blood smear from a droplet of blood collected from the lateral tail vein of each animal and colored with the hematological Diff-Quick® kit. The survival of the animals was also monitored daily. […]

[2] = tested on: C57BL/6 mice infected with P. berghei ANKA; assay: SHIRPA behavioral tests in the ECM model; type: in vivo, mouse; details: day 5 post-infection, difference of scores before and after infection, vs vehicle (PBS)
Text: C57BL/6 mice were used for the experimental cerebral malaria model, and the assays were defined by the presence of at least two of the following clinical signs of neurological involvement: ataxia, paralysis of the limbs, poor correction reflex, convulsions, and coma. A series of SHIRPA tests (SmithKline Beecham, Harwell, Imperial College, Royal London Hospital, phenotype assessment) was used to evaluate behavioral, motor, and neurological changes during the development of the P. berghei infection. Tests aimed at evaluating cognitive and behavioral parameters were selected to assess brain impairment of the mice. The tests described below were initially performed on animals not yet infected at day 0. Next, the mice were treated and infected as described earlier. Five days after infection, the tests were repeated and the results were expressed as the difference between the sum of the scores before and after infection with P. berghei. […]
After five minutes of the test described above, the animals were transferred to the arena without being touched. The observation of the immediate reactions to the new environment was recorded for thirty seconds and a score was assigned.
While mice were still in the arena, the number of squares of 11 cm^2 of the arena that the animal stepped into with four legs at the same time was quantified for thirty seconds. […]

Plasmodium berghei ANKA [3] = assay: Severe non-cerebral malaria model: parasitemia and survival; type: in vivo; details: BALB/c mice
Protocol: as §1
The same protocol was performed with 6- to 8-week-old BALB/c mice also provided from FIOCRUZ (8 male mice per group). […] After 3 days, parasitemia was evaluated by blood smear from a droplet of blood collected from the lateral tail vein of each animal and colored with the hematological Diff-Quick® kit. The survival of the animals was also monitored daily. […]
C57BL/6 (cerebral malaria model) and BALB/c (non-cerebral malaria model) mice received a single daily dose (100 ng Kg^−1 min^−1) of Ang II (brown line), Ang II-SS (orange line), VIPF (blue line), or vehicle (PBS, black line) for 5 days. […] Parasitemia was monitored by Diff-Quick stained blood smears from day 3 to day 7 for C57BL/6 mice (A) and from day 3 to day 9 for BALB/c mice (B). Percentage of survival for C57BL/6 mice (C) and BALB/c mice (D) mice was monitored daily starting on day 6 p.i. […]

Compound	contractile activity (mouse muscle tissue)	effect on parasitemia (Plasmodium)	mouse survival (Plasmodium berghei ANKA [1]; C57BL/6 mice (ECM), 100 ng Kg−1 min−1 i.p. daily for 5 days, Kaplan–Meier, log rank vs vehicle, n = 8)	parasitemia level at day 7 p.i. (Plasmodium berghei ANKA [1]; C57BL/6 mice, 100 ng Kg−1 min−1 i.p. daily until day 4 p.i., first dose 1 h before infection, blood smear, vehicle group reached 18% parasitemia)	SHIRPA behavioral score [2]	mouse survival (Plasmodium berghei ANKA [3]; 100 ng Kg−1 min−1 i.p. daily for 5 days, Kaplan–Meier, log rank vs vehicle, n = 8)	effect on parasitemia (Plasmodium berghei ANKA [3]; 100 ng Kg−1 min−1 i.p. daily until day 4 p.i., blood smear day 3 to 9 p.i., especially at day 9 p.i., vs vehicle)
CC[C@H](C)[C@H](NC(=O)[C@@H](N)C(C)C)C(=O)N1CCC[C@H]1C(=O)N[C@@H](Cc1ccccc1)C(=O)O [VIPF] (H-VIPF-OH)	did not elicit significant contractile activity	–	–	–	–	–	–
C[C@H](CS)C(=O)N1CCC[C@H]1C(=O)O [captopril]	–	discrete but significant reduction in parasitemia	–	–	–	–	–
CDRVYIHPFC (disulfide 1-10 (inferred)) [Ang II-SS, disulfide bridge-constrained derivative of Ang II]	did not elicit significant contractile activity	–	increased mouse survival	approximately 10%	reduced the SHIRPA behavioral score	increased mouse survival	reduced parasitemia

Reference: publication PMC10897374, “Synthetic angiotensin II peptide derivatives confer protection against cerebral and severe non-cerebral malaria in murine models” (Scientific Reports, 2024)
